Experimental data reported in PubChem BioAssay (NCI).
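Test compounds were applied to cells in 96-well plates for 48 hours at 5 doses. Here, GI50 denotes the concentration required for 50% inhibition of growth. TGI marks complete inhibition of growth.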

Legend:
Assay in all cases: growth of human tumour cells (NCI), 48 h
SF-295 CNS = tested on: SF-295 CNS
HCT-15 colon = tested on: HCT-15 colon
OVCAR-5 ovarian = tested on: OVCAR-5 ovarian
ACHN renal = tested on: ACHN renal
SNB-75 CNS = tested on: SNB-75 CNS
SK-MEL-28 melanoma = tested on: SK-MEL-28 melanoma
UACC-62 melanoma = tested on: UACC-62 melanoma
SW-620 colon = tested on: SW-620 colon

**Q.** For `CC/C(=N/N=C(N)N)c1ccc(NC(=O)Nc2ccc(/C(CC)=N/N=C(N)N)cc2)cc1`, which GI50 (SF-295 CNS) is on record?
**A.** 3.99 µM

**Q.** And the TGI (SF-295 CNS)?
**A.** 19 µM

**Q.** What about the GI50 (HCT-15 colon) of the same molecule?
**A.** 11.9 µM

**Q.** What about the TGI (HCT-15 colon) of the same molecule?
**A.** 33.2 µM

**Q.** And the GI50 (OVCAR-5 ovarian)?
**A.** 18.8 µM

**Q.** What about the TGI (OVCAR-5 ovarian) of the same molecule?
**A.** 44.6 µM

**Q.** And the GI50 (ACHN renal)?
**A.** 5.78 µM

**Q.** And the TGI (ACHN renal)?
**A.** 24.5 µM

**Q.** And the GI50 (SNB-75 CNS)?
**A.** 13.6 µM

**Q.** What about the TGI (SNB-75 CNS) of the same molecule?
**A.** 42.1 µM

**Q.** And the GI50 (SK-MEL-28 melanoma)?
**A.** 12.6 µM

**Q.** What about the TGI (SK-MEL-28 melanoma) of the same molecule?
**A.** 46.9 µM

**Q.** And the GI50 (UACC-62 melanoma)?
**A.** 5.13 µM

**Q.** What about the TGI (UACC-62 melanoma) of the same molecule?
**A.** 22.7 µM

**Q.** And the GI50 (SW-620 colon)?
**A.** 8.29 µM

**Q.** What about the TGI (SW-620 colon) of the same molecule?
**A.** 55.6 µM

**Q.** How did the GI50 (SF-295 CNS) turn out when `COc1c2ccccc2c(O)c2c(=O)ccn(C)c12` was run?
**A.** 3.69 µM

**Q.** And the TGI (SF-295 CNS)?
**A.** 27.8 µM

**Q.** What about the GI50 (HCT-15 colon) of the same molecule?
**A.** 3.72 µM

**Q.** What about the TGI (HCT-15 colon) of the same molecule?
**A.** 19.6 µM

**Q.** And the GI50 (OVCAR-5 ovarian)?
**A.** 11.7 µM

**Q.** What about the TGI (OVCAR-5 ovarian) of the same molecule?
**A.** 45 µM

**Q.** What about the GI50 (ACHN renal) of the same molecule?
**A.** 6.13 µM

**Q.** What about the TGI (ACHN renal) of the same molecule?
**A.** 46.3 µM

**Q.** And the GI50 (SNB-75 CNS)?
**A.** 12.9 µM

**Q.** And the TGI (SNB-75 CNS)?
**A.** > 53.9 µM

**Q.** What about the GI50 (SK-MEL-28 melanoma) of the same molecule?
**A.** 21.2 µM

**Q.** What about the TGI (SK-MEL-28 melanoma) of the same molecule?
**A.** > 80.1 µM

**Q.** And the GI50 (UACC-62 melanoma)?
**A.** 2.75 µM

**Q.** What about the TGI (UACC-62 melanoma) of the same molecule?
**A.** 7.5 µM

**Q.** What about the GI50 (SW-620 colon) of the same molecule?
**A.** 16.5 µM

**Q.** And the TGI (SW-620 colon)?
**A.** > 100 µM

**Q.** Which results are given for `Cc1cc2c(cc1Cl)N1C(=O)NS(=O)(=O)N=C1NS2(=O)=O`?
**A.** GI50 (SF-295 CNS): > 100 µM; TGI (SF-295 CNS): > 100 µM; GI50 (HCT-15 colon): > 100 µM; TGI (HCT-15 colon): > 100 µM; GI50 (OVCAR-5 ovarian): > 100 µM; TGI (OVCAR-5 ovarian): > 100 µM; GI50 (ACHN renal): > 100 µM; TGI (ACHN renal): > 100 µM; GI50 (SNB-75 CNS): > 100 µM; TGI (SNB-75 CNS): > 100 µM; GI50 (SK-MEL-28 melanoma): > 100 µM; TGI (SK-MEL-28 melanoma): > 100 µM; GI50 (UACC-62 melanoma): > 100 µM; TGI (UACC-62 melanoma): > 100 µM; GI50 (SW-620 colon): > 100 µM; TGI (SW-620 colon): > 100 µM

**Q.** Which results are given for `COc1cc(-c2nn(-c3cccc(NC(=O)CCN4CCN(C)CC4)c3)cc2-c2ccncc2)ccc1Cl`?
**A.** GI50 (SF-295 CNS): 0.968 µM; TGI (SF-295 CNS): 2.75 µM; GI50 (HCT-15 colon): 1.08 µM; TGI (HCT-15 colon): 4.11 µM; GI50 (OVCAR-5 ovarian): 2.06 µM; TGI (OVCAR-5 ovarian): 5.82 µM; GI50 (ACHN renal): 1.61 µM; TGI (ACHN renal): 10.7 µM; GI50 (SNB-75 CNS): 0.591 µM; TGI (SNB-75 CNS): 2.92 µM; GI50 (SK-MEL-28 melanoma): 1.48 µM; TGI (SK-MEL-28 melanoma): 2.99 µM; GI50 (UACC-62 melanoma): 1.04 µM; TGI (UACC-62 melanoma): 2.66 µM; GI50 (SW-620 colon): 0.443 µM; TGI (SW-620 colon): 1.86 µM

**Q.** Which results are given for `CCOC(=O)c1cc(-c2ccccc2)[nH]c1N/N=C/c1c(Cl)cccc1Cl`?
**A.** GI50 (SF-295 CNS): 0.339 µM; TGI (SF-295 CNS): 10.3 µM; GI50 (HCT-15 colon): 0.671 µM; TGI (HCT-15 colon): > 100 µM; GI50 (OVCAR-5 ovarian): 4.99 µM; TGI (OVCAR-5 ovarian): 98 µM; GI50 (ACHN renal): 0.874 µM; TGI (ACHN renal): > 100 µM; GI50 (SNB-75 CNS): 1.53 µM; TGI (SNB-75 CNS): > 39.6 µM; GI50 (SK-MEL-28 melanoma): 3.35 µM; TGI (SK-MEL-28 melanoma): > 75 µM; GI50 (UACC-62 melanoma): 2.03 µM; TGI (UACC-62 melanoma): > 100 µM; GI50 (SW-620 colon): 0.433 µM; TGI (SW-620 colon): > 81.2 µM

**Q.** Which results are given for `O=C(O)c1cn(C2CC2)c2cc(N3CCN(Cc4ccc5ccccc5c4O)CC3)c(F)cc2c1=O`?
**A.** GI50 (SF-295 CNS): 4.29 µM; TGI (SF-295 CNS): > 100 µM; GI50 (HCT-15 colon): 3.22 µM; TGI (HCT-15 colon): > 100 µM; GI50 (SNB-75 CNS): 1.87 µM; TGI (SNB-75 CNS): 6.73 µM; GI50 (SK-MEL-28 melanoma): 3.71 µM; TGI (SK-MEL-28 melanoma): > 100 µM; GI50 (UACC-62 melanoma): 5.06 µM; TGI (UACC-62 melanoma): > 100 µM

**Q.** Which GI50 (SF-295 CNS) does the source give for `COc1cc(/C=C/c2cc(O)c(C/C=C(\C)CC/C=C(\C)CO)c(O)c2)cc2c1O[C@]1(C)CC[C@@H](O)C(C)(C)[C@H]1C2` here?
**A.** 1.1 µM

**Q.** What about the TGI (HCT-15 colon) of the same molecule?
**A.** > 72.4 µM

**Q.** And the GI50 (OVCAR-5 ovarian)?
**A.** > 100 µM

**Q.** And the TGI (OVCAR-5 ovarian)?
**A.** > 100 µM

**Q.** What about the TGI (ACHN renal) of the same molecule?
**A.** > 71.4 µM

**Q.** And the GI50 (SNB-75 CNS)?
**A.** 55 µM

**Q.** What about the TGI (SNB-75 CNS) of the same molecule?
**A.** > 100 µM

**Q.** And the GI50 (SK-MEL-28 melanoma)?
**A.** > 58.3 µM

**Q.** What about the TGI (SK-MEL-28 melanoma) of the same molecule?
**A.** > 100 µM

**Q.** For `C=C1C(=O)C2(C)OC2(C)C1C(=O)O` (configuration not stated), which TGI (SF-295 CNS) is on record?
**A.** > 100 µM

**Q.** And the TGI (HCT-15 colon)?
**A.** > 100 µM

**Q.** And the TGI (OVCAR-5 ovarian)?
**A.** > 100 µM

**Q.** What about the TGI (ACHN renal) of the same molecule?
**A.** > 100 µM

**Q.** And the TGI (SNB-75 CNS)?
**A.** > 100 µM

**Q.** What about the TGI (SK-MEL-28 melanoma) of the same molecule?
**A.** > 100 µM

**Q.** And the TGI (UACC-62 melanoma)?
**A.** > 100 µM

**Q.** What about the TGI (SW-620 colon) of the same molecule?
**A.** > 100 µM
